# Test results taken from ChEMBL document CHEMBL5036383, “Azapodophyllotoxin Causes Lymphoma and Kidney Cancer Regression by Disrupting Tubulin and Monoglycerols” (2022).
# Calls of active or inactive are those of the source. No cut-off for these calls is given here.
# Experiments:
# A498 [1] = test: Anticancer activity against human A498 cells assessed as reduction of cell viability at 70 nM relative to control; type: functional
# [2] = Anticancer activity against human P493-6 cells assessed as reduction of cell viability at 140 nM relative to control; type: functional
# A498 [3] = test: Antitumour activity against human A498 cells xenografted in mouse assessed as reduction of tumour weight, IT measured after 1 week; type: functional, cell-based; details: time 1.0 weeks
# [4] = Anticancer activity against human P493-6 cells assessed as reduction of cell viability at 280 nM relative to control; type: functional
# CCRF-CEM [5] = test: Anticancer activity against human CCRF-CEM cells assessed as reduction of cell viability at 280 nM relative to control; type: functional
# Tubulin (Homo sapiens) = Tubulin (Homo sapiens) (UniProt P68371+Q9H4B7+P0DPH7+P68366+Q13509+Q71U36+P04350+Q3ZCM7+P07437+P68363+Q9BQE3+Q6PEY2+Q13885+Q9BVA1+Q9BUF5); test: Inhibition of tubulin polymerization (unknown origin); type: protein-complex assay
# [6] = Anticancer activity against transgenic mouse RCC E28 cells assessed as reduction of cell proliferation at 70 nM for 48 hrs relative to control; type: functional; parameters: scale not given: the % may be the effect or the level left
# Mus musculus [7] = test: Antitubulin activity against human CCRF-CEM cells xenografted in IT dosed mouse assessed as fold decrease in tubulin fine needle aspirates treated for 1 week by nano-immuno assay relative to control; type: functional; details: time 1 weeks
# KOPTK1 [8] = test: Anticancer activity against human KOPT-K1 cells assessed as reduction of cell viability at 280 nM relative to control; type: functional
# [9] = Anticancer activity against human 6780 cell cells assessed as reduction of cell viability at 140 nM relative to control; type: functional
# [10] = Anticancer activity against transgenic mouse RCC E28 cells assessed as reduction of cell proliferation at 140 nM for 48 hrs relative to 70 uM treatment; type: functional
# [11] = Anticancer activity against human P493-6 cells assessed as reduction of cell viability at 70 nM relative to control; type: functional
# KOPTK1 [12] = test: Anticancer activity against human KOPT-K1 cells assessed as reduction of cell viability at 140 nM relative to control; type: functional
# Mus musculus [13] = test: Antitubulin activity against human CCRF-CEM cells xenografted in IT dosed mouse assessed as decrease in tubulin level treated for 1 week by nano-immuno assay; type: functional, organism-based; details: time 1.0 weeks
# [14] = Anticancer activity against human DND41 cells assessed as reduction of cell viability at 70 nM relative to control; type: functional
# CCRF-CEM [15] = test: Antitumour activity against human CCRF-CEM xenografted in mouse assessed as reduction of tumour volume, IT measured after 1 week; type: functional; details: time 1.0 weeks
# [16] = Anticancer activity against human 6780 cell cells assessed as reduction of cell viability at 70 nM relative to control; type: functional
# KOPTK1 [17] = test: Anticancer activity against human KOPT-K1 cells assessed as reduction of cell viability at 70 nM relative to control; type: functional
# [18] = Anticancer activity against human 6780 cell cells assessed as reduction of cell viability at 280 nM relative to control; type: functional
# CCRF-CEM [19] = test: Anticancer activity against human CCRF-CEM cells assessed as reduction of cell viability at 140 nM relative to control; type: functional
# CCRF-CEM [20] = test: Anticancer activity against human CCRF-CEM cells assessed as reduction of cell viability at 70 nM relative to control; type: functional
# CCRF-CEM [21] = test: Inhibition of lipid metabolism in human CCRF-CEM cells assessed as increase in mono glycerol level measured after 1 week treatment by DESI-MSI; type: functional, cell-based; details: time 1.0 weeks
compound,measurement,setting,value
O=C1OCC2=C1C(c1ccccc1)c1cc3c(cc1N2CCO)OCCO3 (stereo not drawn),Activity,A498 [1],30%
O=C1OCC2=C1C(c1cccc(Br)c1)c1cc3c(cc1N2CCO)OCCO3 (stereo not drawn),Activity,A498 [1],87%
O=C1OCC2=C1C(c1cccc(C(F)(F)F)c1)c1cc3c(cc1N2CCO)OCCO3 (stereo not drawn),Activity,A498 [1],80%
COc1cc(C2C3=C(COC3=O)N(CCO)c3cc4c(cc32)CCC4)cc(OC)c1OC (stereo not drawn),Activity,[2],90%
same,Activity,A498 [3],Active
same,Activity,[4],98%
same,Activity,CCRF-CEM [5],96%
same,Activity,A498 [1],95%
same,inhibition,Tubulin (Homo sapiens),Active
same,Activity,[6],90%
same,fold change (FC),Mus musculus [7],2
same,Activity,KOPTK1 [8],89%
same,Activity,[9],94%
same,fold change (FC),[10],2
same,Activity,[11],85%
same,Activity,KOPTK1 [12],87%
same,Activity,Mus musculus [13],Active
same,Activity,[14],95%
same,Activity,CCRF-CEM [15],Active
same,Activity,[16],90%
same,Activity,KOPTK1 [17],85%
same,Activity,[18],96%
same,Activity,CCRF-CEM [19],92%
same,Activity,CCRF-CEM [20],90%
same,inhibition,CCRF-CEM [21],Active
O=C1OCC2=C1C(c1cccc(Br)c1)c1cc3c(cc1N2CCO)CCC3 (stereo not drawn),Activity,A498 [1],90%
O=C1OCC2=C1C(c1ccccc1)c1cc3c(cc1N2CCO)OCO3 (stereo not drawn),Activity,A498 [1],30%
O=C1OCC2=C1C(c1cccc(C(F)(F)F)c1)c1cc3c(cc1N2CCO)CCC3 (stereo not drawn),Activity,A498 [1],83%
